The subject of this data set is Caco-2 cell homogenates. As to the kind of experiment: Conversion of prodrug to parent compound (astaxanthin) in frozen/thawed unviable Caco-2 cell homogenates. In kind it is in vitro ADME. An excerpt:
Formation of astaxanthin in resuspended Caco-2 cells previously frozen.
Human carboxylesterase 1 (hCE-1) and carboxylesterase 2 (hCE-2) are serine esterases involved in both drug metabolism and activation of prodrugs. The expression pattern of human carboxylesterase in Caco-2 (human colon adenocarcinoma) cell line is similar to human […] that expresses a much higher level of hCE-1 and lower level of hCE-2 (Drug Metab. Pharmacokinet. 21 (3): 173-185 (2006)).
Therefore, the formation of astaxanthin from compounds CCXX, CCXXI, CCXXII and CCXXVI was tested with Caco-2 cells that were frozen at −80° C. and thawed before testing. The freezing/thawing process without cryopreservants compromised the integrity of the membrane, as confirmed by positive staining of the dead cells with a dye exclusion method using trypan blue. Dead cells are not selective to compounds passing through the compromised membrane, eliminating the transport and permeation barriers to access the cell content and metabolic enzymes including the carboxylesterases.
The Caco-2 (colorectal adenocarcinoma) cellular line was obtained from Cordoba Cell Bank (CCB, CIQUIBIC, Cordoba, Argentina), #ATCC Passage: 18. #CCB Passage: 4. Culture conditions: Low Glucose DMEM (1 g/L)+Penicillin-Streptomycin+20% Fetal Bovine Serum (SFB). Cells were cultured in a 37° C. incubator with 5% CO2 on cell culture dishes. Once they reached confluence, cells were washed twice with Phosphate-buffered saline (PBS) and lifted after trypsinization. For trypsinization, 1 mL of trypsin was added, incubated for a few minutes in the 37° C. incubator, neutralized with supplemented culture medium and cells were collected in 15 mL tubes (Falcon). The tubes were centrifuged for 5 min at 1000 rpm, the supernatant was removed, and the cells were resuspended in supplemented medium. To determine the amount of viable (living) cells, a ½ dilution with trypan blue dye was made and counted in an automatic cell counter (more than 90% of live cells were measured). Finally, the tubes were centrifuged again, and cells were resuspended at a concentration of 5 million/mL in non-supplemented DMEM and placed in a −80° C. freezer. To determine the amount of non-viable cells after freezing and thawing, a ½ dilution with trypan blue dye was made and they were counted in an automatic cell counter and the dead cells were above 95%. Pools of unviable (“leaking”) cell homogenates were subsequently used for incubations with the compounds of interest.
A 1 mL frozen aliquot containing 5 million/mL of unviable Caco-2 cells was thawed and warmed at 37° C. A 0.010 mL aliquot of a stock solution of the compound in DMSO (2.5 mM) was added to the cells and incubated at 37 ° C. At selected timepoints, a 0.2 mL aliquot was removed and mixed with 0.5 mL of methanol containing retinyl acetate (0.011 mM) as an internal standard. The methanolic mixture was vigorously vortexed and 1 mL of chloroform was added to extract unreacted compound, astaxanthin and related compounds as well as the internal standard. After vigorous vortexing, the mixture was centrifuged at 8000 rpm for 10 min at 4° C. The chloroform phase was removed and dried under nitrogen flow. 1 mL of the sample solvent (THF/acetonitrile with 1% Formic acid) was added to the residue, mixed vigorously and filtered through a PVDF 0.22 um filter in a HPLC vial. The filtrate was stored in the autosampler at 5° C. and injected in the HPLC to measure the amount of internal standard, unreacted compound, free astaxanthin and its related compounds. The HPLC equipment was a UHPLC Nexera XR (Shimadzu)/PDA SPD-M3OA (Shimadzu) with a Shimpack GIST C18 100×2.1 mm, 2 um column at 40° C. Two HPLC methods were used, gradient and isocratic depending on the prodrug. Gradient method: flow 0.2 mL/m, mobile phase A (MPA): water with formic acid 0.1%, mobile phase B (MPB): acetonitrile with formic acid 0.1%, gradient: time 0 m 60/40, 2.5 m 10/90, 10.4 m 10/90. UV(PDA) detector 380 and 325 nm (for retinyl acetate). […]

The mark [1] stands for this setting: unviable Caco-2 cells 5 million/mL, 37 °C, HPLC.

In the case of `CC1=C(/C=C/C(C)=C/C=C/C(C)=C/C=C/C=C(C)/C=C/C=C(C)/C=C/C2=C(C)C(=O)[C@@H](OC(=O)CNC(=O)c3cccnc3)CC2(C)C)C(C)(C)C[C@H](OC(=O)CNC(=O)c2cccnc2)C1=O` [CCXX, (all-E)-3S,3′S-Astaxanthin-di-N-nicotinoglycinate], under setting [1], the “Conversion efficiency to trans-astaxanthin (comparison between compounds)” value is “higher conversion efficiency to trans-astaxanthin than CCXXI and CCXXII”; the Conversion to trans-astaxanthin result is on record as “observed”.
For `CC1=C(/C=C/C(C)=C/C=C/C(C)=C/C=C/C=C(C)/C=C/C=C(C)/C=C/C2=C(C)C(=O)[C@@H](OC(=O)CCNC(=O)c3cccnc3)CC2(C)C)C(C)(C)C[C@H](OC(=O)CCNC(=O)c2cccnc2)C1=O` [CCXXI, (all-E)-3S,3′S-astaxanthin-di-N-nicotinoyl-β-alaninate], under setting [1], the Conversion to trans-astaxanthin result is given as “observed”.
Same read-out and setting: the same measure for `CC1=C(/C=C/C(C)=C/C=C/C(C)=C/C=C/C=C(C)/C=C/C=C(C)/C=C/C2=C(C)C(=O)[C@@H](OC(=O)[C@@H](C)NC(=O)c3cccnc3)CC2(C)C)C(C)(C)C[C@H](OC(=O)[C@H](C)NC(=O)c2cccnc2)C1=O` [CCXXII]: “observed”.
Regarding `CC1=C(/C=C/C(C)=C/C=C/C(C)=C/C=C/C=C(C)/C=C/C=C(C)/C=C/C2=C(C)C(=O)[C@@H](OC(=O)[C@H](NC(=O)c3cccnc3)C(C)C)CC2(C)C)C(C)(C)C[C@H](OC(=O)[C@@H](NC(=O)c2cccnc2)C(C)C)C1=O` [CCXXVI], where the note is “Caco-2”, the “Conversion to astaxanthin monoester” value is given as “only a small amount” and the “Stability over the same time frame” value is “stable”.

The record behind these values is patent publication US20240116864A1, “XANTHOPHYLL DERIVATIVES” (priority 2020, published 2024).
